One molecule from patent publication US9962378B2, “ROS1 inhibitor and its use” (Macau University of Science and Technology, priority 2015, dated 2018) can be followed below.

The structures appear in SMILES notation. Some results are limits rather than exact numbers.

Common to all, as to assay type: cell-based
Assay [1] relates to HCC78 NSCLC cells (with ROS1 rearrangement). Briefly: MTT cytotoxicity assay on HCC78 NSCLC cells. The note with it: Homo sapiens, 72 h, mean±SEM, read-out: IC50 (cell viability, MTT). Here is the method: (§1) HCC78 cells and CCD19-Lu cells were obtained from the American Type Culture Collection and cultured in environment of 5% CO2 at 37° C. in RPMI-1640 (GIBCO, Lift Technologies) medium supplemented with 10% fetal bovine serum (FBS) (GIBCO, Lift Technologies), 100 units/mL penicillin, and 100 μg/mL streptomycin (GIBCO, Lift Technologies), crizotinib was purchased from Selleck Chemicals.
(§2) For MTT assay, 3000 cells were seeded on 96-well plates, then treated with DMSO or various concentrations of the compound of Formula (V) for 72 h. At the end of the incubation, 10 μL of MTT (5 mg/mL; Sigma) was added into each well, and the plates were incubated for an additional 4 hours, then the dark blue crystals were dissolved in 100 μL of the resolved solution (10% SDS and 0.1 mM HCL). Finally, the absorbance was measured by a microplate reader at 570 nm (Tecan, Morrisville, N.C., USA). The cell viability was calculated relative to untreated controls, with results based on at least three independent experiments.
Background: Tetrazolium assays rely on reduction of a dye to a coloured formazan, in cell work by metabolically active cells.

The subject of assay [2] is normal lung cells (CCD19-Lu). Briefly: MTT cytotoxicity assay on normal lung cells. The settings on record: Homo sapiens, CCD 19Lu, 72 h, 0-20 μM, read-out: IC50 (cell viability, MTT). Here is the method: as §1, §2
Assay [3] relates to HCC78 cells. Briefly: Annexin-V FITC/PI flow cytometry apoptosis assay. The settings on record: HCC78 cells, 2.5, 5 and 10 μM, 24 h, compared to control group; concentration-dependent. Here is the method: HCC78 cells (1.0×10^5 cells/well) were allowed to attach in a 6-well plates for 24 h, cells were treated with the compound of Formula (V) for 24 h. Subsequently, cells were trypsinized, washed with PBS and stained with 100 μL binding buffer containing 2 μL Annexin-V FITC and 4 μL propidine iodide (PI) incubated in the dark at room temperature for 15 min, before further addition of 400 μL of 1× Annexin-binding buffer. The stained cells were analyzed quantitatively using a Flow Cytometer (BD Biosciences, San Jose, Calif., USA). Data were analyzed by Flow Jo software.
(In general: In flow cytometry, cells or beads pass a laser one at a time.)

The test system of assay [4] is HCC78 cells. Briefly: colony formation assay. The settings on record: HCC78 cells, 1.25, 2.5 and 5 μM, 10 days; dose-dependent. Here is the method: Still further, inhibitory effect of the compound of Formula (V) on the colony formation in HCC78 cells has been tested to provide further evidence that the compound of Formula (V) inhibits the formation of colonies of cancerous cell to an exceptional degree, too.
HCC78 cells were seeded on a six-well plate at a density of 500 cells per well. The cells were exposed to various concentrations of the compound of Formula (V). After 10 days, the colonies were fixed with 4% paraformaldehyde and stained with a 0.5% (0.5% w/v) crystal violet solutions, the number of colonies >50 was counted under a dissecting microscope and surviving fractions were calculated.

In assay [5] the test system is ROS1 phosphorylation and ROS1 downstream signaling molecules pERK1/2, pSTAT3 and pAKT. Briefly: western blot of ROS1 phosphorylation and downstream signaling. The note with it: HCC78 cells, 2.5, 5 and 10 μM, dose-dependent. Here is the method:
Additionally, the suppression of ROS1 phosphorylation as well as its downstream signaling pathway by the compound of Formula (V) has been studied.
Cells exposed to different concentrations of compound of Formula (V), namely 2.5, 5 and 10 μM or 2.5 μM crizotinib as described above and a control group were washed twice with cold PBS then lysed in RIPA lysis buffer containing protease and phosphatase inhibitors, protein concentration of the cell lysates were measured using the Bio-Rad protein Assay kit (Bio-Rad, Philadelphia, Pa., USA). After equalizing the protein concentrations of the samples, 5× laemmli buffer was added and boiled at 100° C. for 5 min. Equal amounts of protein (20-40 μg per lane) were separated with a 10% SDS-PAGE gel, then the separated proteins were transferred to a nitrocellulose (NC) membrane, which was then exposed to 5% non-fat dry milk in TBS containing 0.1% Tween 20 (0.1% TBST) for 1 hour at room temperature with constant agitation, followed by overnight incubation at 4° C. with primary antibodies, after washing 3 times by TBST, the membranes were incubated with secondary rabbit or mouse fluorescent antibodies, the signal intensity of the membranes was detected by an LI-COR Odessy scanner (Belfast, Me., USA). Antibodies against GAPDH, p-AKT, p-ROS1, ROS1, p-ERK, ERK, p-STAT3, STAT3 were purchased from Cell signaling Technology. […]

In general, IC50 refers to the concentration that gives 50% inhibition. As to `CCN(CC)CCNC(=O)c1cc2c(=O)n(C)c3cc(Cl)ccc3c2s1` [compound of Formula (V)], the IC50 in assay [1] was 6.35 ± 1.44 µM. For the same molecule, the IC50 in assay [2] is above 20 µM. Further, in assay [3], the induction of apoptosis result was “induced significant levels of cell apoptosis compared to the control group”. Also, the “formation of HCC78 cell colonies” value in assay [4] is “advantageously inhibited the formation of HCC78 cell colonies”. In assay [5], the “ROS1 downstream signaling molecules pERK1/2, pSTAT3 and pAKT” value is on record as “inhibition”; the ROS1 phosphorylation entry is recorded as “inhibition of ROS1 phosphorylation”.
